The values below come from the Deep4Chem optical property database.

Where “and” joins values, the source holds several entries; their conditions need not be identical. Equal values may be shown once.

A short description of this data set: photoluminescence quantum yield (fraction); solvent given as SMILES.
Where [1] appears, read: in O=P(c1ccccc1)(c1ccccc1)c1ccccc1Oc1ccccc1P(=O)(c1ccccc1)c1ccccc1.

As for `CC(=O)c1ccc(-c2nc3ccc(N(C)C)cc3s2)cc1`, the photoluminescence quantum yield is, setting by setting: (in C1CCCCC1) 0.88; (in CC#N) 0.88; (in CO) 0.041; (in ClC(Cl)Cl) 0.99.
`COc1ccc(C2=C(c3ccc(OC)cc3)c3cccc4c3c(cc3nc5ccccc5nc34)O2)cc1`: for the setting “in ClCCl”, the photoluminescence quantum yield stood at 0.48.
Compound `CCCCC1(CCCC)c2cc(C#Cc3ccc(C=C(c4ccccc4)c4ccccc4)cc3)ccc2-c2ccc(C#Cc3ccc(C=C(c4ccccc4)c4ccccc4)cc3)cc21` had a photoluminescence quantum yield (in C1CCOC1) of 0.048.
With `CN1C(=CC=Cc2nc3nc4ccccc4nc3s2)C(C)(C)c2ccccc21`, where the note is “in CCO”, the photoluminescence quantum yield came out at 0.75.
Take `CC(C)(C)c1ccc2c(c1)c1cc(C(C)(C)C)ccc1n2-c1ccc(N(c2ccc(-c3ccc(-c4ccc(-c5ccc(-c6ccc(-c7ccc(N(c8ccc(-n9c%10ccc(C(C)(C)C)cc%10c%10cc(C(C)(C)C)ccc%109)cc8)c8ccc(-n9c%10ccc(C(C)(C)C)cc%10c%10cc(C(C)(C)C)ccc%109)cc8)cc7)s6)s5)s4)s3)cc2)c2ccc(-n3c4ccc(C(C)(C)C)cc4c4cc(C(C)(C)C)ccc43)cc2)cc1`: under “in ClCCl”, the photoluminescence quantum yield was 0.14.
`C(=C1c2ccccc2CCc2ccccc21)c1ccc(C=C2c3ccccc3CCc3ccccc32)cc1` registered a photoluminescence quantum yield (in C1CCOC1) of 0.001.
As to `[O-]c1ccccc1-c1[nH+]c2c3ccccc3c3ccccc3c2o1`, the photoluminescence quantum yield (in Cc1ccccc1) was determined as 0.111.
On to `CCC1=C(CC)c2cccc3c2c(cc2nc4ccccc4nc23)O1`, for which, where the note is “in ClCCl”, the photoluminescence quantum yield was 0.47.
For `COc1ccc(/C=C/c2ccccc2)cc1`, the photoluminescence quantum yield reads like this: (in C1CCCCC1) 0.022; (in CC#N) 0.007; (in CC(C)O) 0.011; (in CCCCOCCCC) 0.02; (in CCOC(C)=O) 0.016; (in CCOCC) 0.015.
Under “in Cc1ccccc1”, `N#Cc1c(-n2c3ccccc3c3cc(I)ccc32)c(C#N)c(-n2c3ccccc3c3cc(I)ccc32)c(-n2c3ccccc3c3cc(I)ccc32)c1-n1c2ccccc2c2cc(I)ccc21` gave a photoluminescence quantum yield of 0.78.
With `COC(=O)/C(C#N)=c1\s/c(=c2/s/c(=C(/C#N)C(=O)OC)c3cc(-c4ccc(C)cc4)sc23)c2sc(-c3ccc(C)cc3)cc12`, under “in Cc1ccccc1”, the photoluminescence quantum yield came out at 0.325.
On to `N#Cc1ccc(/C=C2\OC(=O)c3cc(N)ccc32)cc1`, for which the photoluminescence quantum yield is, setting by setting: (in CC#N) 0.062; (in CC(C)=O) 0.05; (in CC(C)CO) 0.17; (in CC(C)O) 0.16; (in CCCO) 0.14; (in CCO) 0.13. The photoluminescence quantum yield was 0.047 (in CCOC(C)=O), 0.031 (in CCOCC) and 0.11 (in CO).
The compound `Cn1c(=O)cc(C(=O)c2ccccc2)c2sc(-c3ccc(OC(F)(F)F)cc3)cc21` yielded a photoluminescence quantum yield (in CC#N) of 0.65 and a photoluminescence quantum yield (in ClCCl) of 0.85.
Consider `CC(C)Oc1ccc(C#Cc2ccc3ccc(=O)oc3c2)cc1`, for which the photoluminescence quantum yield (in CC#N) was determined as 0.034.
Consider `Cc1ccc2c(c1)c1cc(C)ccc1n2-c1c(-n2c3ccccc3c3ccccc32)cc(-c2nc(-c3ccccc3)nc(-c3ccccc3)n2)cc1-n1c2ccccc2c2ccccc21`, for which the photoluminescence quantum yield under setting [1] was determined as 0.98.
As for `CC(C)(C)c1ccc(N2c3ccc(C(C)(C)C)cc3B3c4cc(C(C)(C)C)ccc4N(c4ccc(C(C)(C)C)cc4)c4cc(-n5c6ccc(C(C)(C)C)cc6c6cc(C(C)(C)C)ccc65)cc2c43)cc1`, under “in Cc1ccccc1”, the photoluminescence quantum yield stood at 0.975.
In turn, `O=C1OC(=O)C2=C1[Se][C@]13C2=C[C@H](c2ccccc21)c1ccccc13` displayed a photoluminescence quantum yield (in ClCCl) of 0.62.
Regarding `FC(F)(F)c1ccc2oc3nc4oc5ccc(N6c7ccccc7Oc7ccccc76)cc5c4cc3c2c1`, the photoluminescence quantum yield (in ClC(Cl)Cl) was 0.055.
In the case of `CCC1(CC)c2ccccc2-c2ccc(C#Cc3ccc4ccc5cccc6ccc3c4c56)cc21`, the photoluminescence quantum yield (in Cc1ccccc1) is 0.99.
With `O=c1oc2c(ccc3ccccc32)nc1-c1ccccc1`, the photoluminescence quantum yield is, setting by setting: (in CC#N) 0.5; (in CCCCCC) 0.32; (in CO) 0.45; (in c1ccccc1) 0.46 and 0.534.
Regarding `Cc1cccc(C2=Cc3c4ccccc4c4ccccc4[n+]3[B-](F)(F)O2)c1`, under “in ClC(Cl)Cl”, the photoluminescence quantum yield amounted to 0.188.
As to `C(=C\c1cnccn1)/c1ccc2nccnc2c1`, the photoluminescence quantum yield reads like this: (in CCCCCC) 0.001; (in CCO) 0.09; (in CO) 0.12; (in ClCCl) 0.04; (in c1ccccc1) 0.02.
Consider `CN(C)c1ccc(C=C/C=C/C=C/c2ccc(C#N)cc2)cc1`, for which the photoluminescence quantum yield amounted to 0.112 (in C1CCOC1); 0.261 (in CC#N); 0.142 (in CCCC#N); 0.072 (in CCCCCC); 0.081 (in CCCCOCCCC); 0.211 (in CCO). Where the note is “in CCOCC”, this compound displayed a photoluminescence quantum yield of 0.092.
`COc1ccc(C2=Cc3c4ccccc4cc[n+]3[B-](F)(F)O2)cc1`: the photoluminescence quantum yield (in ClC(Cl)Cl) stood at 0.313.
Compound `CCCCOc1ccc2cc(-c3ccc(C)cc3)c(=O)oc2c1` came in with a photoluminescence quantum yield (in C1CCOC1) of 0.611, a photoluminescence quantum yield (in CCCCCC) of 0.564, a photoluminescence quantum yield (in CCO) of 0.597 and a photoluminescence quantum yield (in CS(C)=O) of 0.585.
Turning to `COc1cccc(/C=C/c2ccccc2)c1`, the photoluminescence quantum yield came to 0.18 (in C1CCCCC1); 0.16 (in CC#N); 0.15 (in CC(C)O); 0.2 (in CCCCOCCCC); 0.18 (in CCOC(C)=O); 0.18 (in CCOCC).
For `CCCCCCN(CCCCCC)c1ccc(C#Cc2ccc(C#N)cc2)cc1`, the photoluminescence quantum yield runs as follows: (in CC#N) 0.005; (in CO) 0.015; (in ClCCl) 0.37.
With `Cc1ccc(C2=Cc3ccc4ccccc4[n+]3[B-](F)(F)O2)cc1`, the photoluminescence quantum yield (in ClC(Cl)Cl) was determined as 0.75.
On to `CCCCCCCCCCOc1cc2cc(C#Cc3ccc(/C=C(\C#N)C(=O)O)cc3)c(=O)oc2cc1OCCCCCCCCCC`, for which the photoluminescence quantum yield (in CC#N) was found to be 0.05.
Regarding `CC1=C2CCc3ccccc3C2=[N+]2C1=C(c1ccc(I)cc1)c1c(C)c3c(n1[B-]2(F)F)-c1ccccc1CC3`, the photoluminescence quantum yield (in ClC(Cl)Cl) stood at 0.72.
Where the note is “in c1cc(-c2cccc(-n3c4ccccc4c4ccccc43)c2)cc(-n2c3ccccc3c3ccccc32)c1”, `Cc1cc(-c2nc(-c3ccccc3)nc(-c3ccccc3)n2)c(C)cc1-c1ccc2c(c1)C1(c3ccccc3-c3ccccc31)c1ccccc1N2c1ccccc1` yielded a photoluminescence quantum yield of 0.98.
Consider `CC/[NH+]=c1\cc2oc3cc(NCCC(=O)NC(C(=O)OC)C(C)C)c4ccccc4c3nc-2cc1C` (configuration not stated), for which the photoluminescence quantum yield came out at 0.4 (in CCO) and 0.26 (in O).
Where the note is “in ClCCl”, `Cc1cn2cc(-c3ccc([N+](=O)[O-])cc3)[n-][n+]2c1` came in with a photoluminescence quantum yield of 0.022.
In turn, `C(=C1c2ccccc2CCc2ccccc21)c1ccc(-c2ccc(C=C3c4ccccc4CCc4ccccc43)cc2)cc1` yielded a photoluminescence quantum yield (in C1CCOC1) of 0.0033.
Take `COC(=O)C(NC(=O)CCNc1cccc2ccccc12)c1ccccc1` (configuration not stated): for the setting “in CCO”, the photoluminescence quantum yield turned out to be 0.55.
Turning to `C[Si](C)(c1cccc2ccccc12)[Si](C)(C)c1c2ccccc2cc2ccccc12`, the photoluminescence quantum yield reads like this: (in C1CCCCC1) 0.67; (in CC#N) 0.21.
In the case of `CSc1ccc(/C=C/c2cnc3ccccc3n2)cc1`, where the note is “in ClCCl”, the photoluminescence quantum yield came out at 0.02.
`C/C=C/C=C/C1=NC(=C\c2ccc(O)cc2)/C(=O)N1C`: the photoluminescence quantum yield (in ClC(Cl)Cl) stood at 0.01 and the photoluminescence quantum yield (in O) came out at 0.0008.
As for `COC(=O)C(NC(=O)OC(C)(C)C)c1ccc2oc(-c3ccc(F)cc3)nc2c1` (configuration not stated), the photoluminescence quantum yield is, setting by setting: (in CC1CCCCC1) 0.49; (in CC#N) 0.46; (in CO) 0.48.
In turn, `c1ccc(B2Nc3cc4c(cc3-c3occc32)NB(c2ccccc2)c2ccoc2-4)cc1` came in with a photoluminescence quantum yield (in ClCCl) of 0.26.
`CCOC(=O)C1(O)c2cc3ccc4cccc5ccc(c2C(=O)N1C(C)(C)C)c3c45` (configuration not stated): the photoluminescence quantum yield (in ClC(Cl)Cl) worked out at 0.152.
`COc1ccc2c(c1)-c1ccccc1C2=O`: the photoluminescence quantum yield by setting is: (in C1CCCCC1) 0.0007; (in CC#N) 0.034; (in CCO) 0.002.
With `COc1cccc(-c2c3ccccc3c3n2[B-](F)(F)[N+]2=Cc4c5ccccc5c(-c5cccc(OC)c5)n4[B-](F)(F)[N+]2=C3)c1`, the photoluminescence quantum yield was determined as 0.24 (in CC#N); 0.34 (in CCCCCC); 0.27 (in CN(C)C=O); 0.34 (in Cc1ccccc1); 0.36 (in ClCCl).
For the compound `Cc1ccc(-c2cnc3nn4ccccc4c3c2)cc1`, the photoluminescence quantum yield (in C1CCOC1) stood at 0.29.
The compound `c1ccc(-c2nc(-c3ccccc3)nc(-c3cc(-n4c5ccccc5c5ncccc54)c(-n4c5ccccc5c5ccccc54)c(-n4c5ccccc5c5ncccc54)c3)n2)cc1` returned a photoluminescence quantum yield under setting [1] of 0.85.
For `N#Cc1ccc(C#Cc2ncc(-c3ccccc3)o2)cc1`, the photoluminescence quantum yield (in ClCCl) stood at 0.28.
On to `Cc1cn(C)c(=O)nc1-n1cncn1`, for which, where the note is “in O”, the photoluminescence quantum yield came to 0.071.
Regarding `CC(C)[Si]1(C(C)C)c2ccccc2-c2ccc(N(C)C)cc21`, the photoluminescence quantum yield worked out at 0.26 (in C1CCCCC1); 0.28 (in CC#N); 0.11 (in CCO); 0.22 (in CCOCC); 0.12 (in CS(C)=O); 0.13 (in ClCCl). The same compound gave a photoluminescence quantum yield (in c1ccccc1) of 0.22.
`CC1=N/C(=C\c2ccccc2N)C(=O)N1C`: the photoluminescence quantum yield by setting is: (in C1CCCCC1) 0.002; (in C1CCOC1) 0.009; (in CC#N) 0.004; (in CO) 0.002; (in CS(C)=O) 0.007; (in ClCCl) 0.004. Further, for the setting “in O”, the photoluminescence quantum yield is 0.001.
